# Measured values taken from ChEMBL document CHEMBL1147608, “SAR development of polycyclic guanine derivatives targeted to the discovery of a selective PDE5 inhibitor for treatment of erectile dysfunction” (Bioorg Med Chem Lett, 2004).
# What was measured:
# [1] = target: Phosphodiesterase 3 and 5 (PDE3 and PDE5) (Homo sapiens) (UniProt O76074+Q14432+Q13370); assay: Relative inhibition of PDE3 and PDE5; assay type: protein assay
# [2] = target: Phosphodiesterase 2 and 5 (PDE2 and PDE5) (Homo sapiens) (UniProt O76074+O00408); assay: Relative inhibition of PDE2 and PDE5; assay type: protein assay
# [3] = target: Phosphodiesterase 4 and 5 (PDE4 and PDE5) (Homo sapiens) (UniProt O76074+P27815+Q08499+Q07343+Q08493); assay: Relative inhibition of PDE4 and PDE5; assay type: protein assay
# [4] = target: T1, cGMP-specific 3',5'-cyclic phosphodiesterase (Homo sapiens, UniProt O76074)
# [5] = target: Phosphodiesterase, PDE1/PDE5 (Homo sapiens) (UniProt O76074+P54750+Q01064+Q14123); assay: Realtive inhibition of PDE1 and PDE5; assay type: protein assay
# [6] = target: T1, cGMP-specific 3',5'-cyclic phosphodiesterase; assay: Inhibition of human phosphodiesterase 5 at 100 nM
SMILES,IC50 [4] [nM],also measured
CCN1C(=O)c2c(nc(OCc3ccccc3)n2Cc2ccc(O)c(Cl)c2)N2C[C@@H](Cc3ccccc3)N=C12,2.1,Selectivity [1]: 4760; Selectivity [2]: 4760; Selectivity [3]: 2170; Selectivity [5]: 4760
CCN1C(=O)c2c(nc(Cc3ccccc3)n2Cc2ccc(OC)cc2)N2C1=N[C@@H]1CCC[C@@H]12,20,
CCN1C(=O)c2c(nc(OC)n2Cc2ccc(OC)c(C#N)c2)N2C[C@@H](Cc3ccccc3)N=C12,11,Selectivity [1]: 909; Selectivity [2]: 909; Selectivity [3]: 464; Selectivity [5]: 536
CCN1C(=O)c2c(nc(Cc3ccccc3)n2Cc2cccc(C)c2)N2C1=N[C@@H]1CCC[C@@H]12,,inhibition [6]: 26%
CCSc1nc2c(n1Cc1ccc(OC)cc1)C(=O)N(CC)C1=N[C@@H]3CCC[C@@H]3N12,13,
CCN1C(=O)c2c(nc(OC)n2Cc2ccc(OC)c(Cl)c2)N2C1=N[C@@H]1CCC[C@@H]12,5,
CCN1C(=O)c2c(nc(C(N)=O)n2Cc2ccc(OC)c(Br)c2)N2C1=N[C@@H]1CCC[C@@H]12,1.5,
CCN1C(=O)c2c(nc(OC)n2Cc2ccc(OC)c(Cl)c2)N2C[C@@H](Cc3ccccc3)N=C12,1.6,Selectivity [1]: 6250; Selectivity [2]: 6250; Selectivity [3]: 394; Selectivity [5]: 4380
CCN1C(=O)c2c(nc(C(N)=O)n2Cc2ccc(O)c(Cl)c2)N2C[C@@H](Cc3ccccc3)N=C12,3,Selectivity [1]: 3330; Selectivity [2]: 3330; Selectivity [3]: 1730; Selectivity [5]: 2600
CCN1C(=O)c2c(nc(Cc3ccccc3)n2Cc2ccc(C)c(Cl)c2)N2C1=N[C@@H]1CCC[C@@H]12,,inhibition [6]: 27%
CCN1C(=O)c2c(nc(Cc3ccccc3)n2Cc2ccc(OC)c(Cl)c2)N2C1=N[C@@H]1CCC[C@@H]12,58,
CCN1C(=O)c2c(nc(OC)n2Cc2ccc(O)c(Br)c2)N2C[C@@H](Cc3ccccc3)N=C12,1.3,Selectivity [1]: 7690; Selectivity [2]: 7690; Selectivity [3]: 3770; Selectivity [5]: 7690
CCN1C(=O)c2c(nc(OC)n2Cc2ccc(O)c(C#N)c2)N2C[C@@H](Cc3ccccc3)N=C12,43,
CCN1C(=O)c2c(nc(Cc3ccccc3)n2Cc2ccc(C)cc2)N2C1=N[C@@H]1CCC[C@@H]12,40,
CCN1C(=O)c2c(nc(C#Cc3ccccc3)n2Cc2ccc(OC)cc2)N2C1=N[C@@H]1CCC[C@@H]12,3.1,
CCN1C(=O)c2c(nc(C#Cc3ccccc3)n2Cc2ccccc2)N2C1=N[C@@H]1CCC[C@@H]12,8,
CCN1C(=O)c2c(nc(C(N)=O)n2Cc2ccc(O)cc2)N2C1=N[C@@H]1CCC[C@@H]12,2.1,
CCN1C(=O)c2c(nc(Cc3ccccc3)n2Cc2cccc(Br)c2)N2C1=N[C@@H]1CCC[C@@H]12,,inhibition [6]: 33%
CCN1C(=O)c2c(nc(C(N)=O)n2Cc2ccc(OC)c(Cl)c2)N2C[C@@H](Cc3ccccc3)N=C12,2.8,

SMILES,IC50 [4] [nM],also measured
CCN1C(=O)c2c(nc(Cc3ccccc3)n2Cc2ccc(Cl)cc2)N2C1=N[C@@H]1CCC[C@@H]12,160,
CCN1C(=O)c2c(nc(N)n2Cc2ccc(O)cc2)N2C1=N[C@@H]1CCC[C@@H]12,22,
CCN1C(=O)c2c(nc(C(N)=O)n2Cc2ccc(O)c(Br)c2)N2C1=N[C@@H]1CCC[C@@H]12,0.9,
CCN1C(=O)c2c(nc(C#Cc3ccccc3)n2Cc2ccc(O)cc2)N2C1=N[C@@H]1CCC[C@@H]12,0.3,
CCN1C(=O)c2c(nc(C(=O)OC)n2Cc2ccc(OC)cc2)N2C1=N[C@@H]1CCC[C@@H]12,6.8,
CCN1C(=O)c2c(nc(Cc3ccccc3)n2Cc2ccccc2)N2C1=N[C@@H]1CCC[C@@H]12,130,
CCN1C(=O)c2c(nc(C(F)(F)F)n2Cc2ccc(O)cc2)N2C1=N[C@@H]1CCC[C@@H]12,7,
CCN1C(=O)c2c(nc(C(N)=O)n2Cc2ccc(O)c(Cl)c2)N2C1=N[C@@H]1CCC[C@@H]12,1.1,
CCN1C(=O)c2c(nc(Cc3ccccc3)n2Cc2cccc(Cl)c2)N2C1=N[C@@H]1CCC[C@@H]12,,inhibition [6]: 26%
CCN1C(=O)c2c(nc(S(=O)(=O)CC)n2Cc2ccc(OC)cc2)N2C1=N[C@@H]1CCC[C@@H]12,,inhibition [6]: 31%
CCN1C(=O)c2c(nc(C#N)n2Cc2ccc(OC)cc2)N2C1=N[C@@H]1CCC[C@@H]12,6.3,
CCN1C(=O)c2c(nc(Cc3ccccc3)n2Cc2cccc(OC)c2)N2C1=N[C@@H]1CCC[C@@H]12,,inhibition [6]: 14%
CCOc1nc2c(n1Cc1ccc(OC)c(Cl)c1)C(=O)N(CC)C1=N[C@@H]3CCC[C@@H]3N12,6.5,
CCOc1nc2c(n1Cc1ccc(OC)cc1)C(=O)N(CC)C1=N[C@@H]3CCC[C@@H]3N12,18,
CCN1C(=O)c2c(nc(Cc3ccccc3)n2Cc2ccc(N)cc2)N2C1=N[C@@H]1CCC[C@@H]12,550,
CCN1C(=O)c2c(nc(OC)n2Cc2ccc(OC)c(Br)c2)N2C1=N[C@@H]1CCC[C@@H]12,2.8,
CCN1C(=O)c2c(nc(C(=O)NC)n2Cc2ccc(OC)c(Cl)c2)N2C1=N[C@@H]1CCC[C@@H]12,2.3,
CCN1C(=O)c2c(nc(OC)n2Cc2ccc(OC)c(Br)c2)N2C[C@@H](Cc3ccccc3)N=C12,2.2,Selectivity [1]: 4540; Selectivity [2]: 4540; Selectivity [3]: 418; Selectivity [5]: 4090
CCN1C(=O)c2c(nc(N=[N+]=[N-])n2Cc2ccc(O)cc2)N2C1=N[C@@H]1CCC[C@@H]12,0.61,

SMILES,IC50 [4] [nM],also measured
CCN1C(=O)c2c(nc(C#Cc3ccccc3)n2Cc2ccc(Cl)cc2)N2C1=N[C@@H]1CCC[C@@H]12,5,
CCN1C(=O)c2c(ncn2Cc2ccc(O)c(Br)c2)N2C1=N[C@@H]1CCC[C@@H]12,6.3,
CCN1C(=O)c2c(nc(Cc3ccccc3)n2Cc2ccc([N+](=O)[O-])cc2)N2C1=N[C@@H]1CCC[C@@H]12,,inhibition [6]: 8%
CCN1C(=O)c2c(nc(OC)n2Cc2ccc(O)c(Cl)c2)N2C1=N[C@@H]1CCC[C@@H]12,2,
CCN1C(=O)c2c(nc(N(C)C)n2Cc2ccc(OC)cc2)N2C1=N[C@@H]1CCC[C@@H]12,,inhibition [6]: 27%
CCN1C(=O)c2c(nc(Cc3ccccc3)n2Cc2ccc3ccccc3c2)N2C1=N[C@@H]1CCC[C@@H]12,,inhibition [6]: 32%
CCN1C(=O)c2c(nc(Cc3ccccc3)n2Cc2ccccc2C)N2C1=N[C@@H]1CCC[C@@H]12,,inhibition [6]: 18%
CCOc1nc2c(n1Cc1ccc(O)cc1)C(=O)N(CC)C1=N[C@@H]3CCC[C@@H]3N12,0.9,
CCN1C(=O)c2c(ncn2Cc2ccc(OC)cc2)N2C1=N[C@@H]1CCC[C@@H]12,55,
CCN1C(=O)c2c(nc(C(N)=O)n2Cc2ccc(OC)cc2)N2C1=N[C@@H]1CCC[C@@H]12,4,
CCOc1nc2c(n1Cc1ccc(OC)c(Br)c1)C(=O)N(CC)C1=N[C@@H]3CCC[C@@H]3N12,5.4,
CCN1C(=O)c2c(nc(C(F)(F)F)n2Cc2ccc(OC)cc2)N2C1=N[C@@H]1CCC[C@@H]12,48,
CCN1C(=O)c2c(ncn2Cc2ccc(OC)c(Br)c2)N2C1=N[C@@H]1CCC[C@@H]12,6.5,
CCN1C(=O)c2[nH]c(Cc3ccccc3)nc2N2C1=N[C@@H]1CCC[C@@H]12,39,
CCSc1nc2c(n1Cc1ccc(O)cc1)C(=O)N(CC)C1=N[C@@H]3CCC[C@@H]3N12,1.8,
CCN1C(=O)c2c(nc(OC)n2Cc2ccc(O)c(Br)c2)N2C1=N[C@@H]1CCC[C@@H]12,1.6,
CCOc1nc2c(n1Cc1ccc(O)c(Cl)c1)C(=O)N(CC)C1=N[C@@H]3CCC[C@@H]3N12,2.1,
CCN1C(=O)c2c(nc(C(=O)NC)n2Cc2ccc(O)c(Cl)c2)N2C1=N[C@@H]1CCC[C@@H]12,1.3,
CCN1C(=O)c2c(nc(Cc3ccccc3)n2Cc2ccc3c(c2)OCO3)N2C1=N[C@@H]1CCC[C@@H]12,46,
